Results on eight molecules are retold here after ChEMBL document CHEMBL1151331, “New cyclic peptides from the ascidian Lissoclinum patella” (J Nat Prod, 1998).

A short description of the first experiment: Cytotoxicity against human multi drug-resistant CEM/VBL100 cells in presence of vinblastine. Format: functional, cell-based.
As to `CC[C@H](C)[C@@H]1NC(=O)c2csc(n2)[C@@H](C(C)C)NC(=O)[C@H]2N=C(O[C@@H]2C)[C@H]([C@@H](C)CC)NC(=O)c2csc(n2)[C@@H](C(C)C)NC(=O)[C@@H]2COC1=N2` [PATELLAMIDE A], the IC50 (as a rule, the concentration that inhibits the measured activity by half) was determined as 90 nM.

In the case of `CC[C@H](C)[C@@H]1NC(=O)c2csc(n2)[C@@H](C)NC(=O)[C@H]2N=C(O[C@@H]2C)[C@H](CC(C)C)NC(=O)c2csc(n2)[C@@H](Cc2ccccc2)NC(=O)[C@H]2N=C1O[C@@H]2C` [PATELLAMIDE B], the IC50 was 12 nM.

Take `CC[C@H](C)[C@@H]1NC(=O)c2csc(n2)[C@@H](C)NC(=O)[C@H]2N=C(O[C@@H]2C)[C@H](C(C)C)NC(=O)c2csc(n2)[C@@H](Cc2ccccc2)NC(=O)[C@H]2N=C1O[C@@H]2C` [PATELLAMIDE C]: the IC50 turned out to be 12 nM.

In the case of `CC[C@H](C)[C@@H]1NC(=O)c2csc(n2)[C@@H](Cc2ccccc2)NC(=O)[C@H]2N=C(O[C@@H]2C)[C@H](CC(C)C)NC(=O)c2csc(n2)[C@@H](C)NC(=O)[C@H]([C@H](C)O)NC1=O` [PATELLAMIDE G], the IC50 amounted to 60 nM.

With `CC(C)C[C@H]1NC(=O)[C@H]([C@H](C)O)NC(=O)[C@H]2CSSC[C@@H](NC(=O)c3csc1n3)C(=O)N[C@@H]([C@H](C)O)C(=O)N[C@H](Cc1ccccc1)c1nc(cs1)C(=O)N2` [ULITHIACYCLAMIDE E], the IC50 was determined as 112 nM.

With `CC(C)C[C@H]1NC(=O)[C@H]([C@H](C)O)NC(=O)[C@H]2CSSC[C@@H](NC(=O)c3csc1n3)C1=N[C@H](C(=O)N[C@H](Cc3ccccc3)c3nc(cs3)C(=O)N2)[C@@H](C)O1` [ULITHIACYCLAMIDE F], the IC50 is 44 nM.

On to `CC(C)C[C@H]1NC(=O)[C@H]2N=C(O[C@@H]2C)[C@H]2CSSC[C@@H](NC(=O)c3csc1n3)C(=O)N[C@@H]([C@H](C)O)C(=O)N[C@H](Cc1ccccc1)c1nc(cs1)C(=O)N2` [ULITHIACYCLAMIDE G], for which the IC50 was 90 nM.

The nature of the next experiment: Cytotoxicity against human multi drug-resistant CEM/VBL100 cells. The experiment is classed as functional, cell-based.
For `CC[C@]1(O)C[C@@H]2CN(CCc3c([nH]c4ccccc34)[C@@](C(=O)OC)(c3cc4c(cc3OC)N(C)[C@H]3[C@@](O)(C(=O)OC)[C@H](OC(C)=O)[C@]5(CC)C=CCN6CC[C@]43[C@@H]65)C2)C1` [VINBLASTINE], the IC50 worked out at 90 nM.
